The target of data set [1] is T1, mouse ETB receptor (Mus musculus, UniProt P48302).
T1 construct: expressed in transfected cells
T1 sequence (P48302 27-442): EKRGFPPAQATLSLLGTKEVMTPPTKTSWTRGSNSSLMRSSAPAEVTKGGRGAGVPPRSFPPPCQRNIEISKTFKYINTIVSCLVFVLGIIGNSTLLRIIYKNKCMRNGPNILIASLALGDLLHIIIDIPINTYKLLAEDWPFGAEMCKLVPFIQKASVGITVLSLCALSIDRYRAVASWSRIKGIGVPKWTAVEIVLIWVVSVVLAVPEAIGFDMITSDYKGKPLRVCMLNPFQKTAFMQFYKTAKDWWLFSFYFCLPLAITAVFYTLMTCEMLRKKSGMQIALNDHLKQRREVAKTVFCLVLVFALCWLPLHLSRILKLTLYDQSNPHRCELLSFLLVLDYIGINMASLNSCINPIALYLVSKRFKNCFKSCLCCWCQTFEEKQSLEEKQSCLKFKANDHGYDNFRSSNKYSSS
The data set can be described thus: Determination of EC50s of polypeptides against mouse ETB receptor. In kind it is cell-based. Conditions: Table 9, mouse ETB receptor; read-out: DETAR Agonist Activity EC50.

Data set [2] relates to male SD rats. Conditions: one animal per row, observed 48 hours. On the procedure:
In an experiment about acute toxicity of subcutaneous administration, male SD rats weighing 200-230 g were dosed in a range between 60 µg/Kg and 960 µg/Kg. Observation was made for 48 hours after subcutaneous administration. Toxic response and mortality of the rats were preliminarily observed, and time of death and doses without mortality were recorded. The level of acute toxicity of the polypeptides was preliminarily determined based on the doses without mortality.

For data set [3], the system named is mouse model of dMACO. Description: Cerebral blood flow perfusion in mouse model of dMACO (laser speckle flowmeter). Conditions: dMCAO mice; single dose of 42 µg/kg via tail vein; 24 hours, 48 hours and D7 after administration. The class given is in vivo, C57 BL/6 mice. From the text:
Eight-week-old male C57 BL/6 mice were used and acclimated for at least 3 days. On the day of experiment, the mice were anesthetized with isoflurane, and an incision of approximately 2 cm in length was made in the middle of the […]. The mice were placed under a laser speckle flowmeter to capture a video of blood flow on both sides of the brain as images of pre-ischemic blood flow perfusion. Subsequently, a skull incision (3 mm×1.5 mm) was made at the right rear of the intersection of the sagittal suture and the coronal suture with a skull drill. The distal end of the right middle cerebral artery was located under a microscope, and a No.11 suture was used to ligate the middle artery. Meanwhile, the right common carotid artery was separated and ligated. A video of blood flow on both sides of the brain was captured again as images of post-ischemic blood flow perfusion. The scalp was sutured, and the animals were rewarmed in a rewarming box. Successfully modeled dMACO mice were randomly assigned to single-dose BX-34 groups of 7, 14, and 42 µg/Kg, single-dose IRL1620 groups of 5 and 10 µg/Kg, a three-dose IRL1620 group of 10 µg/Kg, and a normal saline control group. The single-dose groups were administered via tail vein 1 h after modeling, while the three-dose group was administered via tail vein at 1 hour, 3 hours, and 5 hours after modeling. A video of blood flow on both sides of the brain of each animal was captured again at 24 hours, 48 hours, and D7 after administration. During data analysis, the ROI was introduced or the area requiring blood flow calculation was selected. The average blood flow of the selected area was calculated by double-clicking on the blood flow image. Ratios of the average blood flow perfusions on right brain after modeling, and 24 hours, 48 hours and D7 after administration, to the average blood flow on right brain before modeling were used for statistical analysis of each group.

Data set [4] relates to rat model of pMACO. The data set can be described thus: Foot fault test in rat model of pMACO. In kind it is in vivo, SD rats. Conditions: rat pMCAO; D7 after administration; comparison in words.
Data set [5] concerns rat model of pMACO. Description: Garcia JH scoring in rat model of pMACO. In kind it is in vivo, SD rats. Also noted: 5 min Spontaneous Activity / Body Symmetry / Forelimb Extension Movement / Cage Climbing / Body Tactile Response on Both Sides / Beard Touch Reaction on Both Sides / Total Score: scale not given here. Conditions: for 5 min Spontaneous Activity / Beard Touch Reaction on Both Sides / Body Symmetry / Body Tactile Response on Both Sides / Cage Climbing / Forelimb Extension Movement / Total Score: Garcia JH score. From the text:
Male SD rats, weighing 280-300 g, were used and acclimatized for at least 3 days. Focal cerebral ischemia was induced by middle cerebral artery occlusion with a suture method under isoflurane anesthesia. The animals were placed in a supine position, a midline incision was made, and the right common carotid artery, external carotid artery, and internal carotid artery were exposed. A 4.0 monofilament nylon suture was advanced from the external carotid artery toward the internal carotid artery lumen until resistance was felt (~20 mm), indicating middle cerebral artery occlusion. The nylon filament was allowed to stay in place to create a permanent model of focal cerebral ischemia. The day of modeling was defined as D1, the next day as D2, and so on. Since the experiment was not be completed in a single batch, and in order to prevent accidental errors, all operations in this experiment had to follow the principle of parallel operation, i.e., the experiment on each day needed to include animals from each group. Sequential numbering for surgical modeling was obtained by sorting the animals according to their body weight before the experiment. After the surgery, successfully modeled pMCAO rats were randomly assigned into a model group and various treatment groups. The detailed grouping of the experiment was as follows: (1) 15 rats in the 5 µg/Kg IRL1620 group with 9 administrations over 3 days; (2) 15 rats in the 6.6 µg/Kg BX225 group with 9 administrations over 3 days; (3) 15 rats in the 19.8 µg/Kg BX225 group with 3 administrations over 3 days; (4) 15 rats in the model (normal saline) group; and (5) 6 rats in the sham group (the sham group underwent the same procedure without vascular ligation and suture insertion). The administration was performed via tail vein injection (iv) with an administration volume of 2 mL/kg. The first administration was 2 hours after the surgery. Administration frequencies were single and multiple administrations per day according to the experimental design. Administrations were performed on D1, D3, and D6, respectively, as detailed in Table 22. The model group and the sham group were given the same volume of vehicle normal saline.

Where [6] appears, read: Day 21, 19.8 µg/Kg, 1Time regimen.
The mark [7] stands for this setting: Day 21, 3Time regimen: IRL1620 5 µg/Kg, BX225 6.6 µg/Kg.
The mark [8] stands for this setting: Day 30, 19.8 µg/Kg, 1Time regimen.
[9] abbreviates: Day 30, 3Time regimen: IRL1620 5 µg/Kg, BX225 6.6 µg/Kg.
Setting [10] is: pMCAO rats, 6.6 µg/Kg three-dose group, iv.

Structures are written as SMILES. pEC50: −log10 of the molar value. “Also recorded” adds a separate entry of the source. Read-outs that look alike come from different tables or passages of the source. Numbered stars: 1 amine (or outer) side, 2 acyl side, 3 side chain; on linkers, the order of the positions; unused ones are H or OH. Side chains are listed from the residue outwards. Peptide text beside a SMILES is read from it. * marks the point of attachment. X1 = C[C@H](NC(=O)[C@@H]1CCCN1C(=O)[C@@H](N)CSC1CC(=O)N(CCC(=O)*)C1=O)C(=O)N[C@@H](CCCCN)C(=O)O; C18 diacid = O=C(O)CCCCCCCCCCCCCCCCC(=O)*; γGlu = O=C(O)[C@H](CCC(=O)[*:2])N[*:1]; Fumaroyl = O=C(O)/C=C/C(=O)*; Lauroyl = CCCCCCCCCCCC(=O)*; AEEA = NCCOCCOCC(=O)O

As to `CCCCCCCCCCCC(=O)N[C@@H](CCC(=O)NCCOCCOCC(=O)NCCCC[C@H](NC(=O)[C@H](Cc1c[nH]cn1)NC(=O)[C@H](C)NC(=O)[C@H](Cc1ccccc1)NC(=O)[C@H](Cc1ccc(O)cc1)NC(=O)[C@@H](NC(=O)[C@H](C)NC(=O)[C@H](CCC(=O)O)NC(=O)[C@H](CCC(=O)O)NC(=O)[C@H](CC(=O)O)NC(=O)/C=C/C(=O)O)C(C)C)C(=O)N[C@@H](CC(=O)O)C(=O)N[C@H](C(=O)N[C@H](C(=O)N[C@@H](Cc1c[nH]c2ccccc12)C(=O)O)[C@@H](C)CC)C(C)C)C(=O)O` [BX229-Na] (Fumaroyl-DEEAVYFAHK([AEEA-γGlu-Lauroyl])DVIW-OH), the pEC50 (in general, −log10 of the EC50, conventionally taken in molar units) in data set [1] was 8.04. Moreover, the “Observations of Animal Status” value in data set [2] (subcutaneous 120 µg/Kg) is “No obvious reaction observed within 24 hours”; in data set [2] (subcutaneous 240 µg/Kg), “No obvious abnormal reaction observed within 48 hours”; in data set [2] (subcutaneous 480 µg/Kg), “No obvious abnormal reaction observed within 48 hours”; in data set [2] (subcutaneous 960 µg/Kg) it was “No significant reaction within 2 hours, died at 2 hours and 10 minutes; also recorded: No obvious abnormal reaction observed within 48 hours”.

Take `CC[C@H](C)[C@H](NC(=O)[C@H](CC(=O)O)NC(=O)[C@H](CCCCNC(=O)COCCOCCNC(=O)COCCOCCNC(=O)CC[C@H](NC(=O)CCCCCCCCCCCCCCCCC(=O)O)C(=O)O)NC(=O)[C@H](Cc1c[nH]cn1)NC(=O)[C@H](C)NC(=O)[C@H](Cc1ccccc1)NC(=O)[C@H](Cc1ccc(O)cc1)NC(=O)[C@@H](NC(=O)[C@H](C)NC(=O)[C@H](CCC(=O)O)NC(=O)[C@H](CCC(=O)O)NC(=O)[C@H](CC(=O)O)NC(=O)/C=C/C(=O)O)C(C)C)C(=O)N[C@H](C(=O)N[C@@H](Cc1c[nH]c2ccccc12)C(=O)O)[C@@H](C)CC` [BX-34] (Fumaroyl-DEEAVYFAHK([AEEA-AEEA-γGlu-C18 diacid])DIIW-OH): the “cerebral blood flow perfusion amount compared to the normal saline group” value in data set [3] is recorded as “significantly increased”. For the same compound, the “percentages of foot faults” value in data set [4] was “lower than that of the saline group and the IRL1620 group”.

With `CC[C@H](C)[C@H](NC(=O)[C@H](CC(=O)O)NC(=O)[C@H](CCCCNC(=O)COCCOCCNC(=O)CCN1C(=O)CC(SC[C@H](N)C(=O)N2CCC[C@H]2C(=O)N[C@@H](C)C(=O)N[C@@H](CCCCN)C(=O)O)C1=O)NC(=O)[C@H](Cc1c[nH]cn1)NC(=O)[C@H](C)NC(=O)[C@H](Cc1ccccc1)NC(=O)[C@H](Cc1ccc(O)cc1)NC(=O)[C@@H](NC(=O)[C@H](C)NC(=O)[C@H](CCC(=O)O)NC(=O)[C@H](CCC(=O)O)NC(=O)[C@H](CC(=O)O)NC(=O)/C=C/C(=O)O)C(C)C)C(=O)N[C@H](C(=O)N[C@@H](Cc1c[nH]c2ccccc12)C(=O)O)[C@@H](C)CC` (some centres unmarked) [BX-95] (Fumaroyl-DEEAVYFAHK([AEEA-X1])DIIW-OH), the pEC50 in data set [1] was 7.66.

For `CCCCCCCCCCCC(=O)N[C@@H](CCC(=O)NCCOCCOCC(=O)NCCCC[C@H](NC(=O)[C@H](Cc1c[nH]cn1)NC(=O)[C@H](C)NC(=O)[C@H](Cc1ccccc1)NC(=O)[C@H](Cc1ccc(O)cc1)NC(=O)[C@@H](NC(=O)[C@H](C)NC(=O)[C@H](CCC(=O)O)NC(=O)[C@H](CCC(=O)O)NC(=O)[C@H](CC(=O)O)NC(=O)/C=C/C(=O)O)C(C)C)C(=O)N[C@@H](CC(=O)O)C(=O)N[C@H](C(=O)N[C@H](C(=O)N[C@@H](Cc1c[nH]c2ccccc12)C(=O)O)[C@@H](C)CC)[C@@H](C)CC)C(=O)O` [BX-225] (Fumaroyl-DEEAVYFAHK([AEEA-γGlu-Lauroyl])DIIW-OH), in data set [5] (setting [6]), the “5 min Spontaneous Activity” value amounted to 1.17±1.47, the “Beard Touch Reaction on Both Sides” value was determined as 1.63±0.80, the “Body Symmetry” value is reported as 0.63±0.80 and the “Body Tactile Response on Both Sides” value is recorded as 1.60±0.77. For the same compound, in data set [5] (setting [6]), the “Cage Climbing” value is recorded as 1.69± 0.85, the “Forelimb Extension Movement” value is listed as 0.80±1.01 and the “Total Score” value stood at 7.51± 5.58. In data set [5] (setting [7]), the “5 min Spontaneous Activity” value is 2.89±0.33, the “Beard Touch Reaction on Both Sides” value is given as 2.70±0.25, the “Body Symmetry” value came to 1.74±0.48 and the “Body Tactile Response on Both Sides” value came out at 2.50±0.23. Further, in data set [5] (setting [7]), the “Cage Climbing” value was determined as 2.30± 0.71, the “Forelimb Extension Movement” value was determined as 1.87±0.52 and the “Total Score” value worked out at 13.99 ±1.49. In addition, in data set [5] (setting [8]), the “5 min Spontaneous Activity” value was 1.25±1.54, the “Beard Touch Reaction on Both Sides” value turned out to be 1.50±0.65, the “Body Symmetry” value amounted to 0.78±0.98 and the “Body Tactile Response on Both Sides” value is 1.46±0.59. In addition, in data set [5] (setting [8]), the “Cage Climbing” value is reported as 1.79±0.98, the “Forelimb Extension Movement” value is reported as 0.93+1.15 and the “Total Score” value amounted to 7.71± 5.82. Further, in data set [5] (setting [9]), the “5 min Spontaneous Activity” value is listed as 3.00±0.00, the “Beard Touch Reaction on Both Sides” value was 2.39±0.13, the “Body Symmetry” value worked out at 2.07±0.29 and the “Body Tactile Response on Both Sides” value came out at 2.29±0.18. In data set [5] (setting [9]), the “Cage Climbing” value stood at 2.81±0.15, the “Forelimb Extension Movement” value was 2.25±0.23 and the “Total Score” value is listed as 14.81 ±0.56. Further, in data set [5] (setting [10]), the “Garcia JH scores on days 21 and 30 compared with the normal saline group” value is on record as “statistical differences”; the “Garcia JH scores, course from day 7, day 14, day 21, to day 30” value is “continuous improvement trend”.

The values above are taken from patent EP4702986A1, “POLYPEPTIDE AND USE THEREOF” (Biocells (Beijing) Biotech Co., Ltd., priority 2023, dated 2024).
